Here are results for 13 compounds from patent US20080032918A1, “Mast cell-derived renin” (Cornell Research Foundation, Inc., priority 2003, published 2008).

“Also recorded” adds a separate entry of the source.

The test system of assay [1] is Na+/H+ exchanger. The experiment in a line: Na+/H+ exchanger activity in BCECF-loaded SH-SY5Y-AT1A cells. It counts as cell-based, human. How it is done:
Similarly, Na^+/H^+ exchanger activity was measured in response to angiotensin II at the individual cell level in BCECF-loaded SH-SY5Y-AT1A cells. […] Exposing the cells to BAPTA-AM (10 μM) prior to angiotensin II, prevented the angiotensin II-induced increase in Na^+/H^+ exchanger activity.

Assay [2] relates to cardiac sympathetic nerve endings. In words: angiotensin II-evoked norepinephrine release from cardiac sympathetic nerve endings. The settings on record: for decrease of angiotensin II-induced norepinephrine release / effect on norepinephrine release induced by angiotensin II (FIG. 20): EIPA 30 μM, U-73122 1 μM; for decrease of angiotensin II-induced norepinephrine release: DMI 300 nM; for effect on norepinephrine release induced by angiotensin II (FIG. 20): DMI 300 μM.
Protocol: Briefly, male Hartley guinea pigs were anesthetized with CO2 vapor and then exsanguinated. Hearts were perfused through the aorta for 15 min at constant pressure with Ringer's solution at 37° C. […] Hearts were minced in 0.32 M sucrose containing 1 mM EGTA. The minced tissue was then digested with 75 mg collagenase per 10 ml HBS per gm for 1 hr at 37° C. After low speed centrifugation the resulting pellet were suspended in 10 volumes of 0.32 M sucrose and homogenized with a Teflon/glass homogenizer. The homogenate was centrifuged at 650g for 10 min, the pellet was re-homogenized and the homogenate was centrifuged again. The pellet containing cellular debris was discarded, the supernatants from the last two spins were combined, the pooled supernatant was equally subdivided into 4 to 8 tubes and re-centrifuged for 20 min at 20,000g at 4° C. This pellet contains cardiac sympathetic nerve endings. The pellet was resuspended either in HEPES-buffered saline (HBS; 500 μl, normoxic conditions) or in glucose-free HBS, which contained the reducing agent sodium dithionite (500 μl, ischemic conditions), and incubated in the absence or presence of angiotensinogen (1 hr) or other agents for 20 min at 37° C. prior to ischemia (see below). Each suspension was used only once as an independent sample.
Norepinephrine assay: Coronary effluent and synaptosome supernatant will be assayed for NE by HPLC with electrochemical detection (ESA). […] The detection limit is about 0.2 pmol.

The test system of assay [3] is SH-SY5Y-AT1A cells. In words: [3H]MPP+ release from SH-SY5Y-AT1A cells.
Description: Efflux was arrested after 10-min exposure to angiotensin II.
In assay [4] the test system is SH-SY5Y-AT1A cells. In words: intracellular calcium in Fura-2 loaded SH-SY5Y-AT1A cells. It counts as cell-based, human. The protocol:
The next series of experiments were used to outline the major signaling steps in angiotensin II-evoked release of norepinephrine from sympathetic nerve endings. In particular, experiments were designed to ascertain whether stimulation of PLC might result in an increase in intracellular calcium via IP3 generation. Intracellular calcium (Cai) was measured at the individual cell level using Fura-2 loaded SH-SY5Y-AT1A cells (McDonald et al., Neurosci. Lett. 199: 115-118, 1995; Silver et al., Proc. Natl. Acad. Sci. USA 99: 501-506, 2002).
As discussed above, PLC activation may be an early signaling step in mediating this angiotensin II-induced Ca^2+ transient. The PLC inhibitor U-73122 (1 μM) was used to verify this hypothesis. FIG. 21B is a representative trace from one Fura-2 loaded SH-SY5Y-ATIA cell pre-exposed to U-73122.
For orientation: A change in cytosolic calcium serves as a functional read-out for many receptors and channels.

In another assay the test system is human lung mast cells. Particulars: cited from earlier work.
In assay [5] the test system is cardiac sympathetic nerve endings. The experiment in a line: norepinephrine release from isolated cardiac sympathetic nerve endings incubated with angiotensinogen. It counts as cell-based, guinea pig. The source says:
Preparation ofguinea-pig sympathetic nerve endings: Cardiac sympathetic nerve endings were isolated from guinea-pig hearts as previously described (Seyedi et al., J Pharmacol Exp Ther 290: 656-663, 1999; Seyedi et al., Circ. Res. 81: 774-784, 1997). Spontaneously beating hearts were isolated as previously described by the inventors (Hatta et al., J. Pharmacol. Exp. Ther. 288: 919-927, 1999; Park et al., Circ. Res. 71: 992-1001, 1992). Briefly, male Hartley guinea pigs were anesthetized with CO2 vapor and then exsanguinated. Hearts were perfused through the aorta for 15 min at constant pressure with Ringer's solution at 37° C. (Park et al., Circ. Res. 71: 992-1001, 1992) to exclude blood from the coronary circulation. Hearts were minced in 0.32 M sucrose containing 1 mM EGTA. The minced tissue was then digested with 75 mg collagenase per 10 ml HBS per gm for 1 hr at 37° C. After low speed centrifugation the resulting pellet were suspended in 10 volumes of 0.32 M sucrose and homogenized with a Teflon/glass homogenizer. The homogenate was centrifuged at 650g for 10 min, the pellet was re-homogenized and the homogenate was centrifuged again. The pellet containing cellular debris was discarded, the supernatants from the last two spins were combined, the pooled supernatant was equally subdivided into 4 to 8 tubes and re-centrifuged for 20 min at 20,000g at 4° C. This pellet contains cardiac sympathetic nerve endings. The pellet was resuspended either in HEPES-buffered saline (HBS; 500 μl, normoxic conditions) or in glucose-free HBS, which contained the reducing agent sodium dithionite (500 μl, ischemic conditions), and incubated in the absence or presence of angiotensinogen (1 hr) or other agents for 20 min at 37° C. prior to ischemia (see below). Each suspension was used only once as an independent sample.
Norepinephrine assay: Coronary effluent and synaptosome supernatant will be assayed for NE by HPLC with electrochemical detection (ESA). […]

The subject of a further assay is cardiac mast cells. The experiment in a line: renin in coronary effluent of normoxic Langendorff-perfused hearts challenged with 48/80. More on the design: species or system guinea pig. Particulars: lodoxamide 10 μM or BILA 2157 100 nM prior to 48/80. How it is done: Renin was measured in the coronary effluent of normoxic Langendorff-perfused guinea-pig hearts, ex vivo. […] When hearts were perfused with the mast-cell stabilizer lodoxamide (FIG. 9B) or the renin inhibitor BILA2157 prior to 48/80 challenge (FIGS. 9A and B), renin overflow was abolished.

Assay [6] relates to isolated normoxic guinea pig hearts. The experiment in a line: chronotropic response and norepinephrine overflow in normoxic isolated hearts challenged with 48/80. Particulars: BILA 2157 100 nM, lodoxamide 30 μM. The source says: These findings indicate that cardiac mast cells are capable of releasing active renin, which then leads to local formation of ANG II causing norepinephrine exocytosis.

The subject of another assay is guinea-pig hearts. In words: ischemia-reperfusion in guinea pig hearts ex vivo (Langendorff). The settings on record: 20-min global ischemia, 45-min reperfusion, lodoxamide 10 μM; for ventricular fibrillation during reperfusion: BILA2157 100 nM. How it is done:
Ischemia-reperfusion in guinea pig hearts ex vivo: Guinea-pig hearts will be perfused for 30 min prior to ischemia. Inamura et al., Circ. Res. 78: 475-481 (1996). Normothermic 20-min global ischemia will be induced by complete cessation of coronary perfusion, followed by 45-min reperfusion. Coronary effluent will be assayed for renin activity and NE.
Guinea-pig hearts were perfused ex vivo at constant pressure in a Langendorff apparatus and subjected to 20-min. stop-flow global ischemia, followed by 45-min. reperfusion (Hatta, E., R. Maruyama, S. J. Marshall, M. Imamura, and R. Levi. Bradykinin promotes ischemic norepinephrine release in guinea pig and human hearts. J. Pharmacol. Exp. Ther. 288: 919-927 (1999)). Surface ECG and coronary flow were continuously monitored; the coronary effluent was assayed for renin activity (i.e., ANG I generated as described herein). There was no detectable renin in the coronary effluent prior to ischemia. With reperfusion, there was significant renin overflow into the coronary effluent accompanied by ventricular fibrillation (VF) (FIG. 12).
Traces in the left panels were recorded at the end of the equilibration period prior to ischemia, showing normal sinus rhythm.

Assay [7] deals with Na+/H+ exchanger. The experiment in a line: Na+/H+ exchanger activity (acid pulse protocol) in cardiac sympathetic nerve endings. The settings on record: angiotensin II 10 nM; for increase in Na+/H+ exchanger activity over control: norepinephrine 1 μM. It counts as cell-based, guinea pig. The protocol: Na^+/H^+ exchanger activity was assayed by measuring the rate of Na^+-dependent intracellular alkalinization in response to an acid load (NH4Cl). An example of the “acid pulse protocol” used to show Na^+/H^+exchanger activity in dye-loaded (BCECF-loaded) sympathetic nerve endings from guinea pig heart is shown in FIG. 18A. This protocol was performed under HEPES-buffered conditions. All of the solutions perfusing the tissue were osmotically balanced using N-methyl-D-glucamine substitution as previously described (Silver et al., Am. J. Physiol. Renal Physiol. 279: F195-F202, 2000; Silver et al., Am. J. Physiol. 275: F94-102, 1998). As shown in the representative tracing in FIG. 18A, guinea-pig heart sympathetic nerve endings, attached to a cover slip and pre-loaded with BCECF to monitor intracellular pH, were initially bathed in a balanced salt solution (Na Ringer's solution).
The slope of this alkalinization of Na^+/H^+ exchanger activity, represented by the dashed line in FIG. 18A, was 0.04 pH units/min. […] Mean Na^+/H^+ exchanger activities measured in cardiac sympathetic nerve endings in this pilot study are compared in FIG. 18C.

Regarding `CC(=O)OCOC(=O)CN(CC(=O)OCOC(C)=O)c1ccccc1OCCOc1ccccc1N(CC(=O)OCOC(C)=O)CC(=O)OCOC(C)=O` [BAPTA-AM], the “effect on angiotensin II-induced increase in Na+/H+ exchanger activity” value with Na+/H+ exchanger [1] (10 μM prior to angiotensin II 10 nM) was “prevented”.
Regarding `CNCCCN1c2ccccc2CCc2ccccc21` [DMI, desipramine], the “decrease of angiotensin II-induced norepinephrine release” value in assay [2] is given as “about 50%”. Besides, the “effect on norepinephrine release induced by angiotensin II (FIG. 20)” value in [2] (angiotensin II 100 nM) is “blocked”.
Taken in the same sequence, the figures for `CCN(c1nc(N)c(C(=O)N=C(N)N)nc1Cl)C(C)C` [EIPA, 5-(N-ethyl-N-isopropyl)-amiloride] were “about 50%” and “blocked”.
Take `CCCCCCCCCCCCCC(=O)O[C@@H]1[C@@H](C)[C@@]2(O)[C@@H](C=C(CO)C[C@]3(O)C(=O)C(C)=C[C@@H]23)[C@@H]2C(C)(C)[C@]12OC(C)=O` [PMA, phorbol 12-myristate 13-acetate]: the “increase in the releasing effect of angiotensin II” value in the assay with SH-SY5Y-AT1A cells [3] (8-min incubation with PMA) is given as 3 fold.
As to `COc1ccc2c(c1)CC[C@@H]1[C@@H]2CC[C@]2(C)[C@@H](NCCCCCCN3C(=O)C=CC3=O)CC[C@@H]12` [U-73122], the “effect on angiotensin II-induced intracellular calcium transient” value in the assay on SH-SY5Y-AT1A cells [4] (U-73122 1 μM) is listed as “prevented”. Moreover, the “decrease of angiotensin II-induced norepinephrine release” value in [2] was “about 60%”. Also, the “effect on norepinephrine release induced by angiotensin II (FIG. 20)” value in assay [2] (angiotensin II 100 nM) is listed as “blocked”.
Take `CC(=O)OC[C@H]1O[C@@H]([S-])[C@H](OC(C)=O)[C@@H](OC(C)=O)[C@@H]1OC(C)=O.CCP(CC)CC.[Au+]` [auranofin]: the “inhibition of human lung mast cell release (histamine)” value (from here on “inhibition”) with human lung mast cells was “inhibited”.
With `O=C(O)c1cc(=O)c2c(OCC(O)COc3cccc4oc(C(=O)O)cc(=O)c34)cccc2o1` [disodium cromoglycate], the “inhibition” value in the assay on human lung mast cells is listed as “poorly inhibit”.
On to `C[C@H](N[C@@H](CCc1ccccc1)C(=O)O)C(=O)N1CCC[C@H]1C(=O)O` [enalaprilat], for which, in assay [5] (nerve endings incubated with BILA2157 10 nM, enalaprilat 30 nM or EXP 3174 10 nM), the “effect on 48/80 potentiation of norepinephrine release” value is on record as “abolished”.
On to `CC(Cc1ccc(O)cc1)NCC(O)c1cc(O)cc(O)c1` (stereo not drawn) [fenoterol], for which the “inhibition” value with human lung mast cells is recorded as “most potent global inhibitors”.
As to `N#Cc1cc(NC(=O)C(=O)O)c(Cl)c(NC(=O)C(=O)O)c1` [lodoxamide], in assay [5] (lodoxamide 10 μM), the “norepinephrine release when hearts perfused with stabilizer prior to 48/80” value is reported as “markedly attenuated”. Further, the “renin overflow into coronary effluent after 48/80 challenge” value in the assay on cardiac mast cells was “abolished; also recorded: markedly diminished”. In [6], the “chronotropic response to 48/80” value is given as “markedly abbreviated; also recorded: diminishes the chronotropic response”. The “ventricular fibrillation during reperfusion” value with guinea-pig hearts is listed as “no ventricular fibrillation; also recorded: prevent ventricular fibrillation”; with guinea-pig hearts (listed as Lodoxamide), “prevented ventricular fibrillation”. Further, the “renin overflow into coronary effluent on reperfusion” value with guinea-pig hearts (BILA 2157 100 nM) is listed as “no such increase occurs; also recorded: disappeared from the coronary effluent; also recorded: prevented renin release”.
For the compound `CCCc1c2oc(C(=O)O)cc(=O)c2cc2c(=O)cc(C(=O)O)n(CC)c12` [nedocromil sodium], in the assay with human lung mast cells, the “inhibition” value is on record as “poorly inhibit”.
In the case of `NC[C@H](O)c1ccc(O)c(O)c1` [norepinephrine], the “increase in Na+/H+ exchanger activity over control” value in the assay with Na+/H+ exchanger [7] is listed as “about 3 fold”.
In the case of “angiotensin II (DRVYIHPF; Angiotensin-2; UniProt P01019 25-32, looked up)”, in the assay on Na+/H+ exchanger [7] (control 0.04), the “rate of Na+-dependent intracellular alkalinization” value stood at 0.19 pH units/min. Besides, the “increase in Na+/H+ exchanger activity over control” value in the assay on Na+/H+ exchanger [7] is listed as “about 6 fold”. Further, in the assay on Na+/H+ exchanger [1] (angiotensin II 10 nM), the “increase in Na+-dependent intracellular pH recovery rate” value is listed as 2.5 fold. Further, in the assay with SH-SY5Y-AT1A cells [4] (angiotensin II 10 nM, from about 60 nM basal), the “intracellular calcium after angiotensin II” value is given as 220 nM. The “increase in MPP+ release above basal levels” value with SH-SY5Y-AT1A cells [3] (10-min exposure) came to 20%. For the same compound, in [2] (angiotensin II 100 nM), the “increase in norepinephrine release above basal level” value was found to be 27%.
